Where two headings read alike, the source gives them in different places.
Assay: Pharmacokinetics study of KDG-0271 in male CD1 mice (Example 3)
Type: in vivo
Details: for F: bioavailability vs 1 mg/kg IV; for MRT inf: read-out: MRTInf_obs
Experimental: A standard PK study of KDG-0271 was performed in male CD1 mice dosed with a single oral or intraperitoneal dose of KDG-0271. The parameters of the PK study are described in Table 18. Dosing solutions were freshly made prior to use, and were in the form of a suspension. […] For IV and IP, after collection, plasma samples from the same time point were pooled, and the pooled samples were analyzed by LC/MS/MS.
The desired serial concentrations of working solutions were achieved by diluting stock solution of analyte with 50% acetonitrile in water solution. 5 μL of working solutions (1, 2, 4, 20, 100, 200, 1000, 2000 ng/mL) were added to 10 μL of blank CD1 mouse plasma to achieve calibration standards of […] (0.5, 1, 2, 10, 50, 100, 500, 1000 ng/mL) in a total volume of 15 μL. Four quality control samples at 1 ng/mL, 2 ng/mL, 50 ng/mL and 800 ng/mL for plasma were prepared independently of those used for the calibration curves. These QC samples were prepared on the day of analysis in the same way as calibration standards.
15 μL standards, 15 μL QC samples and 15 μL unknown samples (10 μL plasma with 5 μL blank solution) were added to 200 μL of acetonitrile containing IS mixture for precipitating protein. Then the samples were vortexed for 30 seconds. After centrifugation at 4 degrees Celsius, 4000 rpm for 15 minutes, the supernatant was diluted three times with water. 10 μL of diluted supernatant was injected into the LC/MS/MS system for quantitative analysis.
BLOQ=Below quantifiable limit of 1 ng/mL. PK parameters were estimated by non-compartmental model using WinNonlin 6.1. The PO bioavailability (F %) was calculated as following:
AUClast-PO/AUCINF-PO>80%: F=(AUCINF-PO*DoseIV)/(mean AUCINF-IV*DosePO) AUClast-PO/AUCINF-PO≤80% or AUCINF was not available: F=(AUClast-PO*DoseIV)/(mean AUClast-IV*DosePO).
The IP bioavailability (F %) was calculated as following:
AUClast-IP/AUCINF-IP>80%: F=(AUCINF-IP*DoseIV)/(mean AUCINF-IV*DoseIP) AUClast-IP/AUCINF-IP≤80% or AUCINF was not available: F=(AUClast-IP*DoseIV)/(mean AUClast-IV*DoseIP).

[1] = male, mouse, plasma, CD1 mice, 1 mg/kg IV
[2] = male, mouse, CD1 mice, plasma, 1 mg/kg IV, read-out: Concentration IV_Mean
[3] = mouse, plasma, male CD1 mice, 200 mg/kg IP
[4] = mouse, plasma, male CD1 mice, 200 mg/kg PO
[5] = mouse, male CD1 mice, plasma, 200 mg/kg IP, read-out: Concentration IP_Mean
[6] = mouse, male CD1 mice, plasma, 200 mg/kg PO, read-out: Concentration PO_Mean

- AUC_%Extrap_obs (CD1 mice, 1 mg/kg IV): 0.718%
- AUClast/D (CD1 mice, 1 mg/kg IV): 99.3 kg·ng·h/mL/mg
- Cl_obs (CD1 mice, 1 mg/kg IV): 167 mL/min/kg
- Vss_obs (CD1 mice, 1 mg/kg IV): 3.32 L/kg
- Concentration IV_Mean (CD1 mice, plasma, 1 mg/kg IV, 8 h): BLOQ
- AUC_%Extrap_obs (male CD1 mice, 200 mg/kg IP): 43.6%
- AUClast/D (male CD1 mice, 200 mg/kg IP): 40.7 kg·ng·h/mL/mg
- F (male CD1 mice, 200 mg/kg IP): 41.0%
- AUC_%Extrap_obs (male CD1 mice, 200 mg/kg PO): 1.28%
- AUClast/D (male CD1 mice, 200 mg/kg PO): 19.2 kg·ng·h/mL/mg
- F (male CD1 mice, 200 mg/kg PO): 19.4%
- AUC(0-inf) [1]: 100 ng·h/mL
- AUC(0-t) [1]: 99.3 ng·h/mL
- C0 [1]: 637 ng/mL
- half-life [1]: 0.787 h
- MRT inf [1]: 0.332 h
- concentration at 0.083 h (male, mouse, CD1 mice, plasma, 1 mg/kg IV, 0.083 h, read-out: Concentration IV_Mean): 301 ng/mL
- concentration at 0.25 h [2]: 66.6 ng/mL
- concentration at 0.5 h [2]: 24.8 ng/mL
- concentration at 1 h [2]: 9.44 ng/mL
- concentration at 2 h [2]: 2.87 ng/mL
- concentration at 4 h [2]: 0.632 ng/mL
- AUC(0-inf) [3]: 14500 ng·h/mL
- AUC(0-t) [3]: 8150 ng·h/mL
- Cmax [3]: 2160 ng/mL
- Tmax [3]: 0.25 h
- half-life [3]: 6.85 h
- MRT inf [3]: 9.67 h
- AUC(0-inf) [4]: 3880 ng·h/mL
- AUC(0-t) [4]: 3830 ng·h/mL
- Cmax [4]: 1070 ng/mL
- Tmax [4]: 1 h
- half-life [4]: 1.2 h
- MRT inf [4]: 2.37 h
- concentration at 0.25 h [5]: 2160 ng/mL
- concentration at 0.5 h [5]: 1530 ng/mL
- concentration at 1 h [5]: 1390 ng/mL
- concentration at 2 h [5]: 1160 ng/mL
- concentration at 4 h [5]: 992 ng/mL
- concentration at 8 h (mouse, male CD1 mice, plasma, 200 mg/kg IP, 8 h, read-out: Concentration IP_Mean): 638 ng/mL
- concentration at 0.25 h [6]: 701 ng/mL
- concentration at 0.5 h [6]: 958 ng/mL
- concentration at 1 h [6]: 1070 ng/mL
- concentration at 2 h [6]: 836 ng/mL
- concentration at 4 h [6]: 395 ng/mL
- concentration at 8 h (mouse, male CD1 mice, plasma, 200 mg/kg PO, 8 h, read-out: Concentration PO_Mean): 28.6 ng/mL
SMILES: Cc1n[nH]c2c1C(c1cc(C#CC3CN(C(=O)OC(C)(C)C)C3)cc(CO)c1)(C(C)C)C(C#N)=C(N)O2 (centres unmarked) [KDG-0271, tert-butyl 3-[2-(3-[6-amino-5-cyano-4-isopropyl-3-methyl-1H-pyrano[2,3-c]pyrazol-4-yl]-5-(hydroxymethyl)phenyl)ethynyl]azetidine-1-carboxylate]
- clinical symptoms (male CD1 mice, single dose 200 mg/kg PO or 200 mg/kg IP, entire experiment): No abnormal clinical symptoms were observed

Source: patent US20230382920A1, “SHMT Inhibitors” (The Trustees of Princeton University, priority 2020, published 2023)
